According to patent publication US7994140B2, “Classes of compounds that interact with GPCRs” (Alchemia Limited, priority 2002, dated 2011):

Biological target: T1, MC4 (Homo sapiens, UniProt P32245)
T1 construct: purchased Perkin Elmer BioSignal; host or cells: HEK 293
Assay: GPCR radioligand binding (RLB) assay, melanocortin MC4, [125I]NDP-αMSH
Details: 4.0 Micromolar; Example Library 10
Experimental: Recombinant human receptors expressed in HEK 293 cells were used for all experiments. Receptor membrane preparations were purchased from Perkin Elmer BioSignal. The labelled ligand used in somatostatin GPCR RLB assays was [^125I]SST-14 and in melanocortin assays was [^125I]NDP-αMSH. All assays were done in a 96-well plate format using either glass fiber filter mats or filter plates. All reagents purchased were of the highest quality.
Specific assay buffer, incubation and washing conditions were optimized for each receptor however they all followed the same general format. The procedures for both filter mat and filter plate formats are based on the receptor manufacturers recommendations or those described extensively in the literature. The procedures are briefly outlined below.
In assays where filter mats are used we incubate receptor membranes, assay buffer and [^125I] labelled ligand in 96 well microplates. Add compounds to incubation mixture and continue incubation for optimized period. Presoak Filter mat GF/B in 0.5% PEI for ˜2 hr at 4° C. On completion of assay mixture incubation add additional 100 μL/well of assay buffer immediately prior to filtration. Filter the assay mixture onto the GF/B filter mat using a cell harvester. Dry the filter mats prior to sealing them into a scintillation counting bag with scintillant. Radioactivity in each well is detected by liquid scintillation counting.
In assays where filter plates are used Multiscreen glass fiber filter plates (Millipore, Cat No MAFCNOB10) are precoated with 0.5% PEI for ˜2 hr at 4° C. All wells are then washed with 200 µl/well assay buffer and filtered using the Multiscreen Separation System. Subsequently receptor membranes, assay buffer and labelled ligands are added to the wells and equilibrated. Compounds for testing are then added to the mixture and incubation is continued for an optimized time. Plates are then put into the Multiscreen Separation System and the assay mixture is filtered through the plate under vacuum. Each well is then washed several times with assay buffer. Plates are then dried prior to putting sealing tape onto the bottom of the plate. Scintillant is added to each well and radioactivity measured by liquid scintillation counting.
Raw data was analysed according to standard methods using either GraphPad Prism software or IDDBS ActivityBase software.

T1 sequence (P32245 whole entry): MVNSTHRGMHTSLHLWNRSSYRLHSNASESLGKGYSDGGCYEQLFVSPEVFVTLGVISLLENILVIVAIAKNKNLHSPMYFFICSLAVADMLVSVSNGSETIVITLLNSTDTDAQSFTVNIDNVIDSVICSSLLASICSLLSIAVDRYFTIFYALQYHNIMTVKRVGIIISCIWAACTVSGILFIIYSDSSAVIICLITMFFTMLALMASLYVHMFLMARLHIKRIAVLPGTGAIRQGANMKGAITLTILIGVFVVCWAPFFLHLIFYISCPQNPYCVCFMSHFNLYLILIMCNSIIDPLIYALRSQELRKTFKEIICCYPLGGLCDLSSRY

Row | Structure (SMILES) | MC4 Inhibition at 4.0 Micromolar
1 | NCC(=O)N[C@H]1C(OCc2ccc3ccccc3c2)O[C@H](COCc2ccc3ccccc3c2)[C@@H](O)[C@@H]1OCc1ccc(Cl)cc1 (stereo partly drawn) [Compound 350] | + (Indicates inhibition greater than . . . 50%)
2 | NCC(=O)N[C@H]1C(OCc2ccc3ccccc3c2)O[C@H](COCc2ccc3ccccc3c2)[C@@H](O)[C@@H]1OCc1ccc(Cl)cc1 (stereo partly drawn) [Compound 351] | + (Indicates inhibition greater than . . . 50%)
3 | NCCC(=O)N[C@H]1C(OCc2ccc3ccccc3c2)O[C@H](COCc2ccccc2)[C@@H](O)[C@@H]1OCc1ccc(Cl)cc1 (stereo partly drawn) [Compound 352] | + (Indicates inhibition greater than . . . 50%)
4 | NCCC(=O)N[C@H]1C(OCc2ccc3ccccc3c2)O[C@H](COCc2ccccc2)[C@@H](O)[C@@H]1OCc1ccc(Cl)cc1 (stereo partly drawn) [Compound 353] | + (Indicates inhibition greater than . . . 50%)
5 | NCCC(=O)N[C@H]1C(OCc2ccc3ccccc3c2)O[C@H](COCc2ccc(Cl)cc2)[C@@H](O)[C@@H]1OCc1ccc(Cl)cc1 (stereo partly drawn) [Compound 354] | + (Indicates inhibition greater than . . . 50%)
6 | NCCC(=O)N[C@H]1C(OCc2ccc3ccccc3c2)O[C@H](COCc2ccc(Cl)cc2)[C@@H](O)[C@@H]1OCc1ccc(Cl)cc1 (stereo partly drawn) [Compound 355] | + (Indicates inhibition greater than . . . 50%)
7 | NCC(=O)N[C@H]1C(OCc2ccc3ccccc3c2)O[C@H](COCc2ccc3ccccc3c2)[C@@H](O)[C@@H]1OCc1ccc2ccccc2c1 (stereo partly drawn) [Compound 356] | + (Indicates inhibition greater than . . . 50%)
8 | NCCC(=O)N[C@H]1C(OCc2ccc3ccccc3c2)O[C@H](COCc2ccc3ccccc3c2)[C@@H](O)[C@@H]1OCc1ccc2ccccc2c1 (stereo partly drawn) [Compound 357] | + (Indicates inhibition greater than . . . 50%)
9 | NCCC(=O)N[C@H]1C(OCc2ccc3ccccc3c2)O[C@H](COCc2ccccc2)[C@@H](O)[C@@H]1OCc1ccc2ccccc2c1 (stereo partly drawn) [Compound 358] | + (Indicates inhibition greater than . . . 50%)
10 | NCCC(=O)N[C@H]1C(OCc2ccc3ccccc3c2)O[C@H](COCc2ccc(Cl)cc2)[C@@H](O)[C@@H]1OCc1ccc2ccccc2c1 (stereo partly drawn) [Compound 359] | + (Indicates inhibition greater than . . . 50%)
11 | NCCC(=O)N[C@H]1C(OCc2ccc3ccccc3c2)O[C@H](COCc2ccc(Cl)cc2)[C@@H](O)[C@@H]1OCc1ccc2ccccc2c1 (stereo partly drawn) [Compound 360] | + (Indicates inhibition greater than . . . 50%)
12 | NCCC(=O)N[C@H]1C(OCc2ccc3ccccc3c2)O[C@H](COCc2ccc3ccccc3c2)[C@@H](O)[C@@H]1OCc1ccccc1 (stereo partly drawn) [Compound 361] | + (Indicates inhibition greater than . . . 50%)
13 | NCC(=O)N[C@H]1C(OCc2ccc3ccccc3c2)O[C@H](COCc2ccc(Cl)cc2)[C@@H](O)[C@@H]1OCc1ccccc1 (stereo partly drawn) [Compound 364] | + (Indicates inhibition greater than . . . 50%)
14 | NCCCC(=O)N[C@H]1C(OCc2ccc3ccccc3c2)O[C@H](COCc2ccc3ccccc3c2)[C@@H](O)[C@@H]1OCc1ccc2ccccc2c1 (stereo partly drawn) [Compound 369] | + (Indicates inhibition greater than . . . 50%)
15 | NCCCC(=O)N[C@H]1C(OCc2ccc3ccccc3c2)O[C@H](COCc2ccccc2)[C@@H](O)[C@@H]1OCc1ccccc1 (stereo partly drawn) [Compound 374] | + (Indicates inhibition greater than . . . 50%)
16 | NCCCC(=O)N[C@H]1C(OCc2ccc3ccccc3c2)O[C@H](COCc2ccc(Cl)cc2)[C@@H](O)[C@@H]1OCc1ccccc1 (stereo partly drawn) [Compound 375] | + (Indicates inhibition greater than . . . 50%)
17 | NCCC(=O)N[C@H]1C(OCc2ccc(Cl)cc2)O[C@H](COCc2ccccc2)[C@@H](O)[C@@H]1OCc1ccc(Cl)cc1 (stereo partly drawn) [Compound 376] | + (Indicates inhibition greater than . . . 50%)

Same assay, conditions: 4.0 micromolar compound

Row | Structure (SMILES) | MC4 Inhibition at 4.0 Micromolar
18 | COC1C(O)C(COCc2ccc3ccccc3c2)OC(OCc2ccc(Cl)cc2)C1NC(=O)C(N)CN (stereo not drawn) [Compound 342] | + (Indicates inhibition greater than . . . 50%)
19 | COC1C(O)C(COCc2ccc3ccccc3c2)OC(OCc2ccc(Cl)cc2)C1NCC(=O)C1CCCN1 (stereo not drawn) [Compound 343] | + (Indicates inhibition greater than . . . 50%)
20 | COC1C(O)C(COCc2ccc3ccccc3c2)OC(OCc2ccc(Cl)cc2)C1NC(=O)C1CCCN(C(=N)N)C1 (stereo not drawn) [Compound 344] | + (Indicates inhibition greater than . . . 50%)
21 | COC1C(O)C(COCc2ccc3ccccc3c2)OC(OCc2ccc(Cl)cc2)C1NC(=O)CNC(=N)N (stereo not drawn) [Compound 345] | + (Indicates inhibition greater than . . . 50%)
22 | COC1C(O)C(COCc2ccc3ccccc3c2)OC(OCc2ccc(Cl)cc2)C1NC(=O)C(N)CN (stereo not drawn) [Compound 346] | + (Indicates inhibition greater than . . . 50%)
23 | COC1C(O)C(COCc2ccc3ccccc3c2)OC(OCc2ccc(Cl)cc2)C1NCC(=O)C1CCCN1 (stereo not drawn) [Compound 347] | + (Indicates inhibition greater than . . . 50%)
24 | COC1C(O)C(COCc2ccc3ccccc3c2)OC(OCc2ccc(Cl)cc2)C1NC(=O)C1CCN(C(=N)N)CC1 (stereo not drawn) [Compound 348] | + (Indicates inhibition greater than . . . 50%)
25 | COC1C(O)C(COCc2ccc3ccccc3c2)OC(OCc2ccc(Cl)cc2)C1NC(=O)CNC(=N)N (stereo not drawn) [Compound 349] | + (Indicates inhibition greater than . . . 50%)

Same assay, conditions: 10 micromolar compound; recombinant human receptor membranes (HEK 293)

Row | Structure (SMILES) | MC4 inhibition at 10 micromolar
26 | CO[C@H]1[C@H](O)[C@@H](COCc2ccc3ccccc3c2)OC(OCc2cccc(O)c2)[C@@H]1NC(=O)CCNC(=N)N (stereo partly drawn) [Compound 116] | + (Indicates inhibition greater than . . . 50%)
27 | CO[C@H]1[C@H](O)[C@@H](COCc2ccc3ccccc3c2)OC(OCc2cccc(O)c2)[C@@H]1NC(=O)CCCNC(=N)N (stereo partly drawn) [Compound 117] | + (Indicates inhibition greater than . . . 50%)
28 | CSC1OC(COCc2ccc3ccccc3c2)C(O)C(OCc2ccc(-c3ccccc3)cc2)C1NC(=O)CN (stereo not drawn) [Compound 185] | + (Indicates inhibition greater than . . . 50%)
29 | CSC1OC(COC(=O)Cc2ccccc2)C(O)C(OCc2cccc(N)c2)C1NCc1ccccc1 (stereo not drawn) [Compound 308] | + (Indicates inhibition greater than . . . 50%)
30 | CSC1OC(COC(=O)c2c[nH]c3ccccc23)C(O)C(OCc2cccc(N)c2)C1NCc1ccccc1 (stereo not drawn) [Compound 309] | + (Indicates inhibition greater than . . . 50%)
31 | CSC1OC(COC(=O)c2c[nH]c3ccccc23)C(O)C(OCc2cccc(N)c2)C1NCc1ccc(Cl)cc1 (stereo not drawn) [Compound 314] | + (Indicates inhibition greater than . . . 50%)
32 | CSC1O[C@H](COCc2ccccc2)[C@@H](O)[C@H](OCc2cccc(N)c2)[C@H]1NC(=O)Cc1ccccc1 (stereo partly drawn) [Compound 317] | + (Indicates inhibition greater than . . . 50%)
33 | CSC1O[C@H](COCc2ccccc2)[C@@H](O)[C@H](OCc2cccc(N)c2)[C@H]1NC(=O)c1c[nH]c2ccccc12 (stereo partly drawn) [Compound 318] | + (Indicates inhibition greater than . . . 50%)
34 | CSC1O[C@H](COCc2ccc(Cl)cc2)[C@@H](O)[C@H](OCc2cccc(N)c2)[C@H]1NC(=O)c1c[nH]c2ccccc12 (stereo partly drawn) [Compound 323] | + (Indicates inhibition greater than . . . 50%)
35 | CSC1O[C@H](COCc2ccc(Cl)cc2)[C@@H](O)[C@H](OCc2cccc(N)c2)[C@H]1NC(=O)CCC1CNc2ccccc21 (stereo partly drawn) [Compound 325] | + (Indicates inhibition greater than . . . 50%)
36 | CSC1OC(COCc2cccc(N)c2)C(O)C(OCc2ccccc2)C1NC(=O)c1c[nH]c2ccccc12 (stereo not drawn) [Compound 328] | + (Indicates inhibition greater than . . . 50%)
37 | CSC1OC(COCc2cccc(N)c2)C(O)C(OCc2ccc(Cl)cc2)C1NC(=O)CCC1CNc2ccccc21 (stereo not drawn) [Compound 332] | + (Indicates inhibition greater than . . . 50%)
38 | CSC1O[C@H](COCc2cccc(N)c2)[C@@H](O)[C@H](OCc2ccccc2)[C@H]1NC(=O)c1ccccc1 (stereo partly drawn) [Compound 333] | + (Indicates inhibition greater than . . . 50%)
39 | CSC1O[C@H](COCc2cccc(N)c2)[C@@H](O)[C@H](OCc2ccccc2)[C@H]1NC(=O)Cc1ccccc1 (stereo partly drawn) [Compound 334] | + (Indicates inhibition greater than . . . 50%)
40 | CSC1O[C@H](COCc2cccc(N)c2)[C@@H](O)[C@H](OCc2ccccc2)[C@H]1NC(=O)/C=C/c1ccccc1 (stereo partly drawn) [Compound 335] | + (Indicates inhibition greater than . . . 50%)
41 | CSC1O[C@H](COCc2cccc(N)c2)[C@@H](O)[C@H](OCc2ccc(Cl)cc2)[C@H]1NC(=O)/C=C/c1ccccc1 (stereo partly drawn) [Compound 340] | + (Indicates inhibition greater than . . . 50%)

Same assay, conditions: 10 micromolar; Example Library 4

Row | Structure (SMILES) | MC4 inhibition at 10 micromolar
42 | COCC1OC(OCCc2ccccc2)C(NC(=O)CNC(=N)N)C(OCc2ccccc2)C1O (stereo not drawn) [Compound 261] | + (Indicates inhibition greater than . . . 50%)
